Measured values published in patent publication US20240389589A1, “CORROSION INHIBITORS FOR NITROGEN INHIBITOR FORMULATION” (Verdesian Life Sciences U.S., LLC, priority 2021, published 2024).

Assays:
[1] = Nitrapyrin volatilization: weight loss on a heated balance at 100° C.; format: physicochemical; conditions: for weight as a percent of original weight: heated balance 100° C.; for nitrapyrin sulfolane volatility ratio: nitrapyrin without solvent vs. solvent alone
Description: Three materials were placed on a heated balance at […] and had their weights observed every minute for 10 minutes, as a percent of original weight. The materials were: • 1. pure nitrapyrin, • 2. 25% w/w solution of nitrapyrin in sulfolane, and • 3. solution of 25% nitrapyrin salt with equimolar (on acid basis) amount of maleic-itaconic copolymer, also in sulfolane (nitrapyrin/polyanionic polymer salt).
Therefore, the disclosed nitrapyrin-organic acid ionic mixtures substantially reduce the volatilization of nitrapyrin.
Tests were run to determine the relative volatility of the nitrapyrin solution without polyanionic polymer.

[2] = Formation of solutions of nitrapyrin salts at 20% w/w nitrapyrin and grading of solutions; format: physicochemical; set-up: key: 5: Fully dissolved; 4: Mostly dissolved; 3: Mostly not dissolved; 2: Not dissolved; 1: Additional precipitate
Excerpt: Example 2. Formation of Solutions of Nitrapyrin Salts and Grading of Solutions

[3] = solvent A dipropylene glycol, 20% w/w nitrapyrin
[4] = solvent B PT700, 20% w/w nitrapyrin
[5] = solvent C PT250, 20% w/w nitrapyrin
[6] = solvent D triethylene glycol, 20% w/w nitrapyrin
[7] = solvent E tripropylene glycol, 20% w/w nitrapyrin
[8] = solvent F propylene carbonate, 20% w/w nitrapyrin
[9] = solvent G triacetin, 20% w/w nitrapyrin
[10] = solvent H Agnique AMD810, 20% w/w nitrapyrin
[11] = solvent I Agnique AMD3L, 20% w/w nitrapyrin
[12] = solvent J Rhodiasolv ADMA10, 20% w/w nitrapyrin
[13] = solvent K Rhodiasolv ADMA810, 20% w/w nitrapyrin
[14] = solvent L Rhodiasolv PolarClean, 20% w/w nitrapyrin

Compound | grade of solution [2, 3] | grade of solution [2, 4] | grade of solution [2, 5] | grade of solution [2, 6] | grade of solution [2, 7] | grade of solution [2, 8] | grade of solution [2, 9] | grade of solution [2, 10] | grade of solution [2, 11] | grade of solution [2, 12] | grade of solution [2, 13] | grade of solution [2, 14] | other results
Clc1cccc(C(Cl)(Cl)Cl)n1 [nitrapyrin without solvent, nitrapyrin] |  |  |  |  |  |  |  |  |  |  |  |  | weight as a percent of original weight ([1]; experiment time 0 min): 100.00%; weight as a percent of original weight ([1]; experiment time 1 min): 99.20%; weight as a percent of original weight ([1]; experiment time 2 min): 98.56%; weight as a percent of original weight ([1]; experiment time 3 min): 97.92%; weight as a percent of original weight ([1]; experiment time 4 min): 96.00%; weight as a percent of original weight ([1]; experiment time 5 min): 94.87%; weight as a percent of original weight ([1]; experiment time 6 min): 93.75%; weight as a percent of original weight ([1]; experiment time 7 min): 92.63%; weight as a percent of original weight ([1]; experiment time 8 min): 90.87%; weight as a percent of original weight ([1]; experiment time 9 min): 89.90%; weight as a percent of original weight ([1]; experiment time 10 min): 89.10%; nitrapyrin sulfolane volatility ratio ([1]; Delta 3-10): 401%; nitrapyrin sulfolane volatility ratio ([1]; Delta 4-10): 392%; nitrapyrin sulfolane volatility ratio ([1]; Delta 5-10): 393%
O=C(O)CCC(=O)O [succinic] | 3 | 4 | 1 | 2 | 3 | 3 | 2 | 5 | 5 | 5 | 5 | 5 | 
O=C(O)C(O)C(O)C(=O)O (centres unmarked) [tartaric] | 2 | 2 | 1 | 1 | 2 | 2 | 2 | 5 | 5 | 5 | 5 | 5 | 
adipic | 2 | 3 | 1 | 3 | 4 | 3 | 3 | 5 | 5 | 5 | 5 | 5 | 
malic | 2 | 4 | 1 | 2 | 2 | 3 | 3 | 5 | 5 | 5 | 5 | 5 | 
